# Assays:
# [1] = test system: weeds in rice fields; conditions: prior art; cited from earlier work
# [2] = test system: transplanted rice; assay: Crop safety to transplanted rice, general; assay type: in vivo
# [3] = test system: transplanted rice seedlings; assay: Example 6 rice seedling injury; assay type: in vivo
# Description: In this example, the efficacy of Herbicide A is presented for a variety of weeds in the presence of ordinary and infant transplant rice. In this example, tests were conducted at the said JAAPR Lab at different times of the year. "Early season" transplants were made in April and "Normal season" transplants were made in July. The size of the transplants at the respective seasons were: Season Seedling Type Plant Height (cm) Leaf Stage ______________________________________ Early Ordinary 16.5 4.5 Early Infant 9.1 2.4 Normal Ordinary 41.7 5.3 Normal Infant 14.7 1.9 ______________________________________
# Duplicate treatments were used. At the time of application of the herbicide, the status of the grass (EC) was as follows: […]
# [4] = test system: Ec (Echinochloa crusgalli); assay: Example 8 residual weed control, JAAPR, Japan; assay type: in vivo; conditions: Table 8 (Ec and Ri)
# Description: This example describes the results of tests conducted at the JAAPR Laboratory in Japan to determine the comparative residual effect of Herbicide A vis-a-vis that of commercial rice herbicides in Japan.
# In the tests according to this example, the test weed species Echinochloa crusgalli (Ec) and Rotala indica (Ri), were grown in clay loam soil having 2.3% organic matter and a percolation rate of 3 cm/day for 2 days. Herbicide A was applied to the weeds at an expected use rate of about 0.67-1.34 lbs/ac (0.75-1.5 kgs/ha) and the commercial rice herbicides, whose active ingredients are identified below, were applied at their indicated expected use rates: […]
# [5] = test system: Ek (Eleocharis kuroguwai); assay: Other tests, perennial control; assay type: in vivo
# [6] = test system: direct-seeded rice plants; conditions: 1.0 lb/ac and 0.25 lb/ac; '620 and '945 Table I; cited from earlier work
# [7] = test system: Cc (Commelina communis); assay: Example 7 greenhouse preemergence activity; assay type: in vivo
# Description: In a further comparative study of the preemergence activity of Herbicides A and B, a variety of weeds and upland direct-seeded rice were tested under greenhouse conditions. The present invention is not concerned with the use of Herbicide A in direct-seeded rice. The primary purpose of the experimental work in this example is to compare relative herbicidal activity of Herbicides A and B against the weeds shown in Table 7; most of these weeds were not available for tests with transplanted rice. Although the relative selectivity of these herbicides in upland rice is also evident, that aspect of the tests is more or less incidental to the purpose of this example.
# In this example, rice seeds and seeds of the weeds shown in Table 7 were sown in Ray silt loam soil at a depth of 0.5 inch (1.27 cm) in containers for the soil in a greenhouse. Herbicides A and B were applied to the surface of the soil at a spray volume equivalent to 20 gals/acre (187.1 liters/hectare), followed by 0.5 in (1.27 cm) of overhead irrigation. Temperature and relative humidity in the greenhouse were on the order of 85°F (29°C) and 75%, respectively. Observations were made at 21-28 days after seeding.
# In Table 7 are shown the average rates of herbicide required to cause a growth reduction of 85% of the weeds ("GR85 "), and the average rate of herbicide required to cause a growth reduction of 15% ("GR15 ") of the rice plants (Oryza sativa, "Os", variety Bluebelle).
# [8] = test system: Ammannia spp, Amaranthus retroflexus, Elatine triandra, Jussiaea decurrens, Lindernia pyxidaria, Rotala Sphenoclea zeylanica and Partulaca oleracea; assay: Weeds effectively treated to date: dicotyledonous broadleaf weeds; assay type: in vivo
# [9] = test system: Cyperus difformis, Cyperus iria, Cyperus serotinus, Eleocharis acicularis, Eleocharis kuroguwai, Fimbristylis spp, Scirpus hotarui and Scirpus spp; assay: Weeds effectively treated to date: sedges; assay type: in vivo
# [10] = test system: carp; assay: Example 10 fish toxicity, Japanese protocol; assay type: in vivo
# Description: In view of the importance of fish toxicological considerations, tests were conducted, using carp according to the Japanese protocol, to compare toxicity data for Herbicides A and B; results of those tests are shown in Table 10.
# [11] = test system: Alisma canaliculatum, Aneilema japonica, Monochoria vaginalis, Commelina communis; assay: Weeds effectively treated to date: monocotyledonous broadleaf weeds; assay type: in vivo
# [12] = test system: Sa (Sagittaria aginashi); assay: Other tests, perennial control; assay type: in vivo
smiles,measurement,setting,value
"CCCCOCN(C(=O)CCl)c1c(CC)cccc1CC [Herbicide B, n-(butoxymethyl)-2',6'-diethyl-2-chloroacetanilide, reference compound]",period of application,[1],only brief periods of application
"CCCCOCN(C(=O)CCl)c1c(C)cccc1C(C)(C)C [Herbicide A, n-(butoxymethyl)-6'-tert-butyl-2-chloro-o-acetotoluidide]",safe application timing,[2]; 2 days before transplant (Table 6) to 14 DAT (Table 4),can safely be applied preemergence
same,"crop injury, transplanted rice",[2]; recommended use rates,negligible crop injury
same,Rice Seedling Injury (%),"[3]; Early season, ordinary, 1.0 kg/ha, 3 DAT",5%
same,Rice Seedling Injury (%),"[3]; Early season, ordinary, 1.0 kg/ha, 12 DAT",0%
same,Rice Seedling Injury (%),"[3]; Early season, ordinary, 1.0 kg/ha, -2 DAT",10%
same,Rice Seedling Injury (%),"[3]; Early season, ordinary, .5 kg/ha, 3 DAT",0%
same,Rice Seedling Injury (%),"[3]; Early season, ordinary, .5 kg/ha, 12 DAT",0%
same,Rice Seedling Injury (%),"[3]; Early season, ordinary, .5 kg/ha, -2 DAT",10%
same,Rice Seedling Injury (%),"[3]; Normal season, infant, 1.0 kg/ha, 3 DAT",20%
same,Rice Seedling Injury (%),"[3]; Normal season, infant, 1.0 kg/ha, 7 DAT",10%
same,Rice Seedling Injury (%),"[3]; Normal season, infant, 1.0 kg/ha, -2 DAT",40%
same,Rice Seedling Injury (%),"[3]; Normal season, infant, .5 kg/ha, 3 DAT",15%
same,Rice Seedling Injury (%),"[3]; Normal season, infant, .5 kg/ha, 7 DAT",10%
same,Rice Seedling Injury (%),"[3]; Normal season, infant, .5 kg/ha, -2 DAT",20%
same,Rice Seedling Injury (%),"[3]; Normal season, ordinary, 1.0 kg/ha, 3 DAT",15%
same,Rice Seedling Injury (%),"[3]; Normal season, ordinary, 1.0 kg/ha, 7 DAT",10%
same,Rice Seedling Injury (%),"[3]; Normal season, ordinary, 1.0 kg/ha, -2 DAT",30%
same,Rice Seedling Injury (%),"[3]; Normal season, ordinary, .5 kg/ha, 3 DAT",15%
same,Rice Seedling Injury (%),"[3]; Normal season, ordinary, .5 kg/ha, 7 DAT",5%
same,Rice Seedling Injury (%),"[3]; Normal season, ordinary, .5 kg/ha, -2 DAT",25%
same,"rice toxicity, infant vs ordinary seedlings",[3]; infant vs ordinary,No difference
same,"rice toxicity, preemergence vs later treatments",[3]; preemergence treatments vs later,somewhat more toxic to rice
same,residual activity,[4],over 30 days
same,control of perennial Ek,[5],fair to good
same,phytotoxicity to direct-seeded rice,[6],severe phytotoxicity
same,resistance of Cc,[7],resistant
same,effectively treated dicotyledonous broadleaf weeds,[8],effectively treated
same,effectively treated sedges,[9],effectively treated
same,toxicity to carp relative to Herbicide B,[10]; equal concentration basis,about one-half
same,toxicity in the field relative to Herbicide B,[10]; taking expected use rate one-third of B,about one-sixth
same,effectively treated monocotyledonous broadleaf weeds,[11],effectively treated
same,activity against Sa,[12],generally weak
